53 compounds from patent publication US12522587B2, “Cancer treatments targeting cancer stem cells” (Remedy Plan, Inc., priority 2018, dated 2026) can be followed below.

SMILES strings stand for the structures.

Broadly, the IC50 is the concentration at which inhibition is half-maximal. Higher therefore signals a need for much substance.

One assay deals with AGS cells. In words: Cell viability in AGS cells (CellTiter Glo2, 8-point dose response, 4 days). In kind it is cell-based, human.
Details: not given
The procedure:
AGS cells were treated with DMSO (no drug control) or each compound in Table 5 in an 8-point dose response for 4 days. Cell viability was measured using CellTiter Glo2. The IC50 of each compound was determined using CDD Vault.
A general note: ATP-based viability assays read luminescence as a measure of living cells.
As to `CCC(=O)N1CCc2cc(-c3ccc(C(=O)NCc4cccnc4)nc3)ccc21` [Compound I-55, 5-(1-propionylindolin-5-yl)-N-(pyridin-3-ylmethyl)picolinamide], the IC50 stood at 3.66 µM.

Compound `CCC(=O)N1CCc2cc(-c3nc(C(=O)NCc4cccnc4)c[nH]3)ccc21` [Compound I-208, 2-(1-propionylindolin-5-yl)-N-(pyridin-3-ylmethyl)-1H-imidazole-4-carboxamide] showed an IC50 of 15.1 µM.

`CCC(=O)N1CCc2cc(-c3ccc(C(=O)NCc4ccnnc4)cc3)ccc21` [Compound I-52, 4-(1-propionylindolin-5-yl)-N-(pyridazin-4-ylmethyl)benzamide] showed an IC50 of more than 8.01 µM.

`CCC(=O)N1CCc2cc(-c3ccc(C(=O)NCc4cccnc4)cc3C)ccc21` [Compound I-91, 3-methyl-4-(1-propionylindolin-5-yl)-N-(pyridin-3-ylmethyl)benzamide] yielded an IC50 of 2.59 µM.

Regarding `CCC(=O)N1CCc2cc(-c3ccc(C(=O)NCc4ccccn4)cc3)ccc21` [Compound I-185, 4-(1-propionylindolin-5-yl)-N-(pyridin-2-ylmethyl)benzamide], inhibition was half-maximal at 21 µM (IC50).

Still in this assay, the particulars now being: Homo sapiens, AGS, 96 h.
In the case of `CCC(=O)N1CCc2cc(-c3ccc(C(=O)NCc4ccccc4)cc3)ccc21` [Compound I-152], the IC50 is more than 30 µM.

`CN(C(=O)c1ccccc1)c1ccc(-c2ccc(C(=O)NCc3cccnc3)cc2)cc1` [Compound I-240] showed an IC50 of 5.11 µM.

The compound `CCC(=O)N1CCc2cc(-c3ccc(C(=O)NCc4cccnc4)nc3)ccc21` [Compound I-55, 5-(1-propionylindolin-5-yl)-N-(pyridin-3-ylmethyl)picolinamide] returned an IC50 of 2.89 µM.

Turning to `CCC(=O)N(C)c1ccc(-c2ccc(C(=O)NCc3cccnc3)nc2)cc1C` [Compound I-227, 5-(3-methyl-4-(N-methylpropionamido)phenyl)-N-(pyridin-3-ylmethyl)picolinamide], it took 5.22 µM to reach half-maximal inhibition (IC50).

As for `CCC(=O)N(C)c1ccc(-c2ccc(S(=O)(=O)NCc3cccnc3)cc2)cc1` [Compound I-226], the IC50 amounted to 9.76 µM.

For `CCC(=O)N1CCc2cc(-c3ccc(C(=O)NCc4cccnc4)cc3)c(C)cc21` (single isomer, unassigned) [Compound I-203, 4-(6-methyl-1-propionylindolin-5-yl)-N-(pyridin-3-ylmethyl)benzamide], the IC50 is 1.54 µM.

The compound `CCC(=O)N1CCc2cc(-c3ccc(C(=O)NCc4ccc(Cl)cc4)cc3)ccc21` [Compound I-176] came in with an IC50 of 25.8 µM.

Turning to `CCC(=O)N1CCc2cc(-c3nc(C(=O)NCc4cccnc4)c[nH]3)ccc21` [Compound I-208, 2-(1-propionylindolin-5-yl)-N-(pyridin-3-ylmethyl)-1H-imidazole-4-carboxamide], the IC50 is more than 30 µM.

`CCC(=O)N1CCc2cc(-c3ccc(C(=O)NCC4CCCC4)cc3)ccc21` [Compound I-207] came in with an IC50 of more than 100 µM.

Consider `CC(C)C(=O)N(C)c1ccc(-c2ccc(C(=O)NCc3cccnc3)cc2)cc1` [Compound I-250], for which the IC50 stood at 1.87 µM.

As for `CCC(=O)N1CCc2cc(-c3ccc(C(=O)NCc4ccc(OC)cc4)cc3)ccc21` [Compound I-156], the IC50 was more than 30 µM.

Turning to `CCC(=O)N1CCc2cc(-c3ccc(C(=O)NCc4ccnnc4)cc3)ccc21` [Compound I-52, 4-(1-propionylindolin-5-yl)-N-(pyridazin-4-ylmethyl)benzamide], the IC50 is more than 10 µM.

With `O=C(NCc1cccnc1)c1ccc(-c2ccc3c(c2)CCN3C(=O)C2CC2)cc1` [Compound I-220], half-maximal inhibition (IC50) was put at 2.94 µM.

In turn, `CCC(=O)N1CCc2cc(-c3ccc(C(=O)NCC4CCCNC4)cc3)ccc21` (stereo not shown) [Compound I-63, N-(piperidin-3-ylmethyl)-4-(1-propionylindolin-5-yl)benzamide] had an IC50 of more than 30 µM.

On to `CCOc1ccc(CNC(=O)c2ccc(-c3ccc4c(c3)CCN4C(=O)CC)cc2)cc1` [Compound I-180], for which the IC50 is more than 30 µM.

As to `CCC(=O)N1CCc2cc(-c3ccc(C(=O)NCC4CCCO4)cc3)ccc21` (stereo not shown) [Compound I-178], the IC50 is more than 30 µM.

Consider `CCC(=O)N1CCc2cc(-c3ccc(C(=O)NCC4CNC4)cc3)ccc21` [Compound I-200, N-(azetidin-3-ylmethyl)-4-(1-propionylindolin-5-yl)benzamide], for which the half-maximal inhibitory concentration (IC50) is more than 30 µM.

For the compound `CCC(=O)N1CCc2cc(-c3ccc(C(=O)NCc4cnco4)cc3)ccc21` [Compound I-73, N-(oxazol-5-ylmethyl)-4-(1-propionylindolin-5-yl)benzamide], the IC50 is more than 30 µM.

The compound `CCC(=O)N1CCc2cc(-c3ccc(C(=O)NC(C)c4ccccc4)cc3)ccc21` (stereo not shown) [Compound I-160] had an IC50 of more than 30 µM.

`CCC(=O)N1CCc2cc(-c3ccc(C(=O)NC(C)c4cccnc4)cc3)ccc21` (stereo not shown) [Compound I-57, 4-(1-propionylindolin-5-yl)-N-(1-(pyridin-3-yl)ethyl)benzamide] registered a half-inhibitory concentration (IC50) of more than 28.2 µM.

The compound `CCC(=O)N1CCc2cc(-c3ncc(C(=O)NCc4cccnc4)cn3)ccc21` [Compound I-66, 2-(1-propionylindolin-5-yl)-N-(pyridin-3-ylmethyl) pyrimidine-5-carboxamide] returned an IC50 of more than 30 µM.

Compound `CCC(=O)N1CCc2cc(-c3ccc(C(=O)NC(C)(C)c4cccnc4)cc3)ccc21` [Compound I-58, 4-(1-propionylindolin-5-yl)-N-(2-(pyridin-3-yl)propan-2-yl)benzamide] registered an IC50 of more than 30 µM.

`CCC(=O)N1CCc2cc(-c3ccc(C(=O)Nc4cccnc4)cc3)ccc21` [Compound I-74] gave an IC50 of 6.61 µM.

In turn, `CCC(=O)N(C)c1ccc(-c2ccc(C(=O)NCc3cnccc3C)cc2)cc1` [Compound I-238] displayed an IC50 of more than 30 µM.

Compound `CC(=O)N1CCc2cc(-c3ccc(C(=O)NCc4ccccn4)cc3)ccc21` [Compound I-175] registered an IC50 of 5.14 µM.

`CCC(=O)N1CCc2cc(-c3ccc(C(=O)NCc4cccnc4)cc3C)ccc21` [Compound I-91, 3-methyl-4-(1-propionylindolin-5-yl)-N-(pyridin-3-ylmethyl)benzamide]: it took 2.03 µM to reach half-maximal inhibition (IC50).

As to `CCC(=O)N1CCc2cc(-c3ccc(C(=O)NCc4cccc(Cl)c4)cc3)ccc21` [Compound I-168], the IC50 was more than 30 µM.

For the compound `CCC(=O)N1CCc2cc(-c3ccc(C(=O)NCc4cncnc4)cc3)ccc21` [Compound I-51, 4-(1-propionylindolin-5-yl)-N-(pyrimidin-5-ylmethyl)benzamide], the IC50 is more than 30 µM.

Take `CCC(=O)N(C)c1ccc(-c2ccc(C(=O)NCc3cncs3)cc2)cc1` [Compound I-235]: the IC50 is more than 30 µM.

For `CCC(=O)N1CCc2cc(-c3ccc(C(=O)NCc4cccnc4)c(O)c3)ccc21` [Compound I-210], the IC50 came out at 3.02 µM.

`CCC(=O)N1CCc2cc(-c3ccc(C(=O)NCC4CN(C(=O)OC(C)(C)C)C4)cc3)ccc21` [Compound I-196] returned an IC50 of more than 30 µM.

Compound `CCC(=O)N(C)c1ccc(-c2ccc(C(=O)NCc3cccnc3)cc2)c(C)c1` [Compound I-217] showed an IC50 of 1.85 µM.

`CCC(=O)N1CCc2cc(-c3ccc(C(=O)NCc4cccnc4)c(OC)c3)ccc21` [Compound I-96, 2-methoxy-4-(1-propionylindolin-5-yl)-N-(pyridin-3-ylmethyl)benzamide]: the IC50 was more than 30 µM.

Regarding `CCC(=O)N1CCc2cc(-c3ccc(C(=O)NCC4CCCCC4)cc3)ccc21` [Compound I-186, N-(cyclohexylmethyl)-4-(1-propionylindolin-5-yl)benzamide], the IC50 was more than 30 µM.

For `O=C(NCc1cccnc1)c1ccc(-c2ccc3c(c2)CCN3C(=O)CO)cc1` [Compound I-47, 4-(1-(2-hydroxyacetyl)indolin-5-yl)-N-(pyridin-3-ylmethyl)benzamide], the IC50 was 3.22 µM.

The compound `CCC(=O)N1CCc2cc(-c3ccc(C(=O)NCc4ccc(F)cc4)cc3)ccc21` [Compound I-179] gave an IC50 of more than 30 µM.

`CN1CCc2cc(-c3ccc(C(=O)NCc4cccnc4)cc3)ccc21` [Compound I-75, 4-(1-methylindolin-5-yl)-N-(pyridin-3-ylmethyl)benzamide] had an IC50 of more than 20.6 µM.

`CCC(=O)N(C)c1ccc(-c2ccc(C(=O)NCc3cscn3)cc2)cc1` [Compound I-236] showed an IC50 of more than 30 µM.

As for `CCC(=O)N1CCc2cc(-c3ccc(C(=O)NCc4ccc(C)cc4)cc3)ccc21` [Compound I-157], the IC50 is more than 30 µM.

`CCC(=O)N1CCc2cc(-c3ccc(C(=O)NCc4cccnc4)cc3F)ccc21` [Compound I-97, 3-fluoro-4-(1-propionylindolin-5-yl)-N-(pyridin-3-ylmethyl) benzamide] gave an IC50 of 3.17 µM.

Take `CCC(=O)n1ccc2cc(-c3ccc(C(=O)NCc4cccnc4)cc3)ccc21` [Compound I-90, 4-(1-propionyl-1H-indol-5-yl)-N-(pyridin-3-ylmethyl)benzamide]: the IC50 is more than 13.3 µM.

The compound `CC(=O)N(C)c1ccc(-c2ccc(C(=O)NCc3cccnc3)cc2)cc1C` [Compound I-216] returned a half-inhibitory concentration (IC50) of 2.44 µM.

Consider `CCC(=O)N(C)c1ccc(-c2ccc(C(=O)NCc3cccnc3)cn2)c(C)c1` [Compound I-246, 6-(2-methyl-4-(N-methylpropionamido)phenyl)-N-(pyridin-3-ylmethyl)nicotinamide], for which the IC50 was 12.1 µM.

For `CN(C(=O)CC#N)c1ccc(-c2ccc(C(=O)NCc3cccnc3)cc2)cc1` [Compound I-249], the IC50 is more than 18.4 µM.

Regarding `CCC(=O)N1CCc2cc(-c3ccc(C(=O)NCc4cccc(OC)c4)cc3)ccc21` [Compound I-171], the IC50 was more than 30 µM.

`CCC(=O)N1CCc2cc(-c3ccc(S(=O)(=O)NCc4cccnc4)cc3)ccc21` [Compound I-48, 4-(1-propionylindolin-5-yl)-N-(pyridin-3-ylmethyl)benzenesulfonamide]: the IC50 came out at 9.45 µM.

Turning to `CCN(C)C(=O)c1ccc(-c2ccc(C(=O)NCc3cccnc3)cc2)cc1` [Compound I-251], half-maximal inhibition (IC50) required 1.65 µM.

`CCC(=O)N1CCc2cc(-c3ccc(C(=O)NCc4ccccn4)cc3)ccc21` [Compound I-185, 4-(1-propionylindolin-5-yl)-N-(pyridin-2-ylmethyl)benzamide]: the IC50 is 15.5 µM.

`CCC(=O)N1CCc2c1ccc(-c1ccc(C(=O)NCc3cccnc3)cc1)c2F` [Compound I-213] came in with an IC50 of 3.48 µM.

For `CCC(=O)N1CCc2cc(-c3cnc(C(=O)NCc4cccnc4)nc3)ccc21` [Compound I-65, 5-(1-propionylindolin-5-yl)-N-(pyridin-3-ylmethyl) pyrimidine-2-carboxamide], the IC50 is 7.27 µM.

`CCC(=O)Nc1ccc(-c2ccc(C(=O)NCc3cccnc3)cc2)cc1` [Compound I-44, 4′-propionamido-N-(pyridin-3-ylmethyl)-[1,1′-biphenyl]-4-Carboxamide] displayed an IC50 of more than 30 µM.

For `CCC(=O)N1CCc2cc(-c3cccc(C(=O)NCc4cccnc4)c3)ccc21` [Compound I-50, 3-(1-propionylindolin-5-yl)-N-(pyridin-3-ylmethyl)benzamide], the IC50 is more than 30 µM.

The compound `CCC(=O)N1CCc2cc(-c3ccc(C(=O)NCc4cccnn4)cc3)ccc21` [Compound I-197, 4-(1-propionylindolin-5-yl)-N-(pyridazin-3-ylmethyl)benzamide] yielded an IC50 of 25.2 µM.
